# Patent US20240398694A1, “SKINCARE COMPOSITION CONTAINING SHATAVARI EXTRACT” (Bangkok Lab and Cosmetic Public Company Limited, priority 2023, published 2024)
# Values joined by “and” are separate entries in the source; they are usually repeats but may differ in a detail not shown here. Identical values can stand only once. Like-named read-outs stand apart in the source and are kept apart here.
# Experiments:
# [1] = applying 10% vitamin C; cited from earlier work
# [2] = Free-radical nitric oxide binding using Griess reagent; details: triplicate
# From the text: (§1) These are used in free-radical binding studies by the DPPH method and in free-radical nitric oxide binding using Griess reagent.
# [3] = Free-radical DPPH binding study
# From the text: From the free-radical DPPH binding study, Shatavari extract has an SC50 of 5.92+0.03 milligrams per milliliter. […] Also, the free-radical DPPH binding activity of non-diluted Shatavari extract is 91.15+0.97%.
# as §1
# [4] = tested on: prostate cancer cells DU-145; details: human
# From the text: (§2) Prostate cancer cells are the representatives of the study of 5α-reductase inhibition activity due to the production of 5α-reductase in prostate cancer cells.
# 5α-reductase = 5α-reductase inhibition activity in prostate cancer cells DU-145; assay type: cell-based, human; details: FIG. 5, lanes 3 and 4 vs control lane 2
# From the text: as §2
# breast cancer cells MCF7 = test: Estrogen hormone stimulation activity: % survival of breast cancer cells MCF7; assay type: cell-based, human
# From the text: Breast cancer cells are the representatives of the study of estrogen receptor stimulation activity because breast cancer cells are responsible for estrogen hormone.
smiles,measurement,setting,value
"O=C1O[C@H]([C@@H](O)CO)C(O)=C1O [vitamin C, L-ascorbic acid]",reduction of sunburn,[1],40-60%
same,reduction of the skin's redness from UVB exposure,[1],52%
same,IC50 of free-radical nitric oxide binding,[2],0.84 ± 0.02 milligrams per milliliter
same,SC50 (IC50) of free-radical DPPH binding,[3],0.02 ± 0.01 milligrams per milliliter
CC(C)(C)NC(=O)[C@H]1CC[C@H]2[C@@H]3CC[C@H]4NC(=O)C=C[C@]4(C)[C@H]3CC[C@]12C [finasteride],highest concentration non-cytotoxic to prostate cancer cells DU-145,[4],10 micrograms per milliliter
same,% Survival of prostate cancer cells DU-145 (means ± S.D.),[4]; 0.01 μg/mL,100.19%
same,% Survival of prostate cancer cells DU-145 (means ± S.D.),[4]; 0.1 μg/mL,99.75%
same,% Survival of prostate cancer cells DU-145 (means ± S.D.),[4]; 1 μg/mL,94.89%
same,% Survival of prostate cancer cells DU-145 (means ± S.D.),[4]; 100 μg/mL,0%
same,agarose gel band of 5α-reductase DNA (700-bp fragment) from treated DU-145 cells,5α-reductase,faded
C[C@]12CC[C@@H]3c4ccc(O)cc4CC[C@H]3[C@@H]1CC[C@@H]2O [β-estradiol],% survival of breast cancer cells MCF7 (means ± S.D.),breast cancer cells MCF7; concentration 0.1 μg/mL,92.14%
same,% survival of breast cancer cells MCF7 (means ± S.D.),breast cancer cells MCF7; concentration 1 μg/mL,101.82%
same,% survival of breast cancer cells MCF7 (means ± S.D.),breast cancer cells MCF7; concentration 10 μg/mL,98.84%
same,% survival of breast cancer cells MCF7 (means ± S.D.),breast cancer cells MCF7; concentration 100 μg/mL,96.53%
same,% survival of breast cancer cells MCF7 (means ± S.D.),"breast cancer cells MCF7; concentration 1,000 μg/mL",107.2% and 107.20 ± 5.37%
